Measured values from patent US11109593B2, “Isoxazolin-5-one derivative and herbicide containing same as active ingredient” (HOKKO CHEMICAL INDUSTRY CO., LTD., priority 2017, dated 2021).

Experiments:
Format in all cases: in vivo
Echinochloa crus-galli [1] = assay: Test Example 1: herbicidal effect test by treatment of rice paddy soil (immediately after seeding); settings: 120 g/10a active ingredient, dry weight vs untreated area, 14 days after treatment
Method in brief: (§1)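 Puddled, fertilized (N:P:K=17:17:17) paddy soil in Wagner pots; seeds sown 0–1 cm deep, flooded to about 3 cm. Emulsifiable formulations diluted in water and dropped into the water immediately after seeding at 120 g active ingredient per 10 ares; greenhouse. Herbicidal rate from dry weight vs untreated at 14 days.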

Scirpus juncoides [2] = assay: as above; settings: 120 g/10a active ingredient, dry weight vs untreated area, 14 days after treatment
Method in brief: as §1

[3] = tested on: broad leaf weeds (Lindernia pyxidaria and Monochoria vaginalis); assay: as above; settings: 120 g/10a active ingredient, dry weight vs untreated area, 14 days after treatment
Method in brief: as §1

Echinochloa crus-galli [4] = assay: Test Example 2: herbicidal effect test by treatment during growing period in paddy rice cultivation (seven days after seeding); settings: 120 g/10a active ingredient, assessed 14 days after treatment, dry weight vs untreated area
Method in brief: (§2)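 Seeds sown 0–1 cm deep in puddled, fertilised paddy soil with about 3 cm standing water in a glass greenhouse. Diluted emulsion dropped into the water seven days after seeding at 120 g active ingredient per 10 ares. Herbicidal rate (%) from mean dry weight vs untreated, duplicate, 14 days after treatment.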

Scirpus juncoides [5] = assay: as above; settings: 120 g/10a active ingredient, assessed 14 days after treatment, dry weight vs untreated area
Method in brief: as §2

[6] = tested on: broad leaf weeds (Lindernia pyxidaria and Monochoria vaginalis); assay: as above; settings: 120 g/10a active ingredient, assessed 14 days after treatment, dry weight vs untreated area
Method in brief: as §2

Amaranthus viridis [7] = assay: Test Example 3: herbicidal effect test by treatment of dry field farming soil (one day after seeding); settings: 120 g/10a active ingredient, evaluated 14 days after treatment
Method in brief: (§3)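 Alluvial dry-field soil in pots, top 1 cm mixed with 20 seeds per weed species. One day after seeding, the water-diluted emulsion was sprayed onto the soil surface at 100 L per 10 ares (120 g active ingredient per 10 ares). Duplicate pots; herbicidal rate (%) from plant dry weight versus untreated, 14 days after treatment.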

Chenopodium album [8] = assay: as above; settings: 120 g/10a active ingredient, evaluated 14 days after treatment
Method in brief: as §3

Echinochloa crus-galli [9] = assay: as above; settings: 120 g/10a active ingredient, evaluated 14 days after treatment
Method in brief: as §3

southern crabgrass [10] = assay: as above; settings: 120 g/10a active ingredient, evaluated 14 days after treatment
Method in brief: as §3

Amaranthus viridis [11] = assay: Test Example 4: herbicidal effect test by treatment of leave and stem in dry field farming (seven days after seeding); settings: 120 g/10a active ingredient; emulsion sprayed seven days after seeding; evaluated 14 days after treatment
Method in brief: (§4)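 Duplicate pots were scored 14 days post-spray by dry weight, herbicidal rate = {1 − treated/untreated average dry weight} × 100. The water-diluted emulsion, equivalent to 120 g active ingredient per 10 ares in 100 L, was applied seven days after sowing 20 seeds each into the upper 1 cm of alluvial soil.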

Chenopodium album [12] = assay: as above; settings: 120 g/10a active ingredient; emulsion sprayed seven days after seeding; evaluated 14 days after treatment
Method in brief: as §4

Echinochloa crus-galli [13] = assay: as above; settings: 120 g/10a active ingredient; emulsion sprayed seven days after seeding; evaluated 14 days after treatment
Method in brief: as §4

southern crabgrass [14] = assay: as above; settings: 120 g/10a active ingredient; emulsion sprayed seven days after seeding; evaluated 14 days after treatment
Method in brief: as §4

Structure (SMILES) | Herbicidal rate (%) Echinochloa crus-galli (Echinochloa crus-galli [1]) [%] | Herbicidal rate (%) Scirpus juncoides (Scirpus juncoides [2]) [%] | Herbicidal rate (%) Lindernia pyxidaria [3] [%] | Herbicidal rate (%) Monochoria vaginalis [3] [%] | Herbicidal rate (%) Echinochloa crus-galli (Echinochloa crus-galli [4]) [%] | Herbicidal rate (%) Scirpus juncoides (Scirpus juncoides [5]) [%] | Herbicidal rate (%) Lindernia pyxidaria [6] [%] | Herbicidal rate (%) Monochoria vaginalis [6] [%] | herbicidal rate, Amaranthus viridis (Amaranthus viridis [7]) [%] | herbicidal rate, Chenopodium album (Chenopodium album [8]) [%] | herbicidal rate, Echinochloa crus-galli (Echinochloa crus-galli [9]) [%] | herbicidal rate, southern crabgrass (southern crabgrass [10]) [%] | herbicidal effect (herbicidal rate), Amaranthus viridis (Amaranthus viridis [11]) [%] | herbicidal effect (herbicidal rate), Chenopodium album (Chenopodium album [12]) [%] | herbicidal effect (herbicidal rate), Echinochloa crus-galli (Echinochloa crus-galli [13]) [%] | herbicidal effect (herbicidal rate), southern crabgrass (southern crabgrass [14]) [%]
CCCC(C)n1oc(=O)c(Cc2ccccc2N(C(=O)CC(C)C)S(=O)(=O)C(F)(F)F)c1C (stereo not drawn) [Compound 1-356] | 100 | 90 | 90 | 60 | 100 | 90 | 60 | 70 | 90 | 60 | 90 | 90 | 60 | 60 | 90 | 80
COCC(C)n1oc(=O)c(Cc2ccccc2N(C(=O)CC(C)C)S(=O)(=O)C(F)(F)F)c1C (stereo not drawn) [Compound 1-357] | 90 | 90 | 90 | 90 | 90 | 90 | 90 | 90 | 90 | 90 | 90 | 90 | 40 | 40 | 90 | 90
CSCCn1oc(=O)c(Cc2ccccc2N(C(=O)CC(C)C)S(=O)(=O)C(F)(F)F)c1C [Compound 1-358] | 90 | 90 | 90 | 90 | 90 | 90 | 90 | 90 | 90 | 90 | 90 | 90 | 40 | 40 | 90 | 90
Cc1c(Cc2ccccc2N(C(=O)CC(C)C)S(=O)(=O)C(F)(F)F)c(=O)on1C(C)c1ccccc1 (stereo not drawn) [Compound 1-359] | 90 | 90 | 90 | 90 | 90 | 90 | 90 | 90 | 90 | 90 | 90 | 90 | 40 | 40 | 90 | 90
Cc1c(Cc2ccccc2N(C(=O)C2CC2)S(=O)(=O)C(F)(F)F)c(=O)on1C(C)(C)C [Compound 1-403] | 90 | 90 | 90 | 90 | 90 | 90 | 90 | 90 | 90 | 90 | 90 | 90 | 40 | 40 | 90 | 90
CCC(C)n1oc(=O)c(Cc2ccccc2N(C(=O)C2CC2)S(=O)(=O)C(F)(F)F)c1C (stereo not drawn) [Compound 1-404] | 90 | 90 | 90 | 90 | 90 | 90 | 90 | 90 | 90 | 90 | 90 | 90 | 40 | 40 | 90 | 90
CCC(CC)n1oc(=O)c(Cc2ccccc2N(C(=O)C2CC2)S(=O)(=O)C(F)(F)F)c1C [Compound 1-405] | 90 | 90 | 90 | 90 | 90 | 90 | 90 | 90 | 90 | 90 | 90 | 90 | 40 | 40 | 90 | 90
Cc1c(Cc2ccccc2N(C(=O)C2CC2)S(=O)(=O)C(F)(F)F)c(=O)on1CC(C)(C)C [Compound 1-407] | 90 | 90 | 90 | 90 | 90 | 90 | 90 | 90 | 90 | 90 | 90 | 90 | 40 | 40 | 90 | 90
CCCC(C)n1oc(=O)c(Cc2ccccc2N(C(=O)C2CC2)S(=O)(=O)C(F)(F)F)c1C (stereo not drawn) [Compound 1-408] | 100 | 90 | 80 | 80 | 90 | 90 | 70 | 60 | 80 | 60 | 100 | 100 | 40 | 70 | 90 | 90
